# Literature values as cited in patent US12551473B2, “Compositions and methods for increasing athletic performance” (VDF Futureceuticals, Inc., priority 2015, dated 2026).
# Experiments:
# [1] = tested on: skin blood flow; conditions: during cycling exercise at 55% VO2max
# [2] = tested on: systolic blood pressure; conditions: 5.5 mmol/day, acute (1 day) and chronic (6 day), during cycling in healthy young men
Compound,skin blood flow [1],reduced systolic blood pressure (mean) [2]
CN(C)C(=O)Oc1ccc[n+](C)c1 [pyridostigmine],reduces,–
O=[N+]([O-])O [nitrate],–,6 mmHg
